Test: Plasma half-life
Type: in vivo

For O=C(O)COC[C@H]1CC[C@H](COC(=O)N(c2ccccc2)c2ccc(Cl)cc2)CC1 [Compound 1, 2-(((1r,4r)-4-(((4-chlorophenyl)(phenyl)carbamoyloxy)methyl)cyclohexyl)methoxy)acetic acid], the half-life was about 24 h.

From patent publication US12433865B2, “Compositions comprising PGI2-receptor agonists and processes for the preparation thereof” (Arena Pharmaceuticals, Inc., priority 2018, dated 2025)
